Laboratory results taken from patent US20250381277A1, “COMPOSITIONS AND METHODS FOR TREATMENT OF NEUROLOGICAL DISORDERS” (Dana-Farber Cancer Institute, Inc., priority 2022, published 2025).

Tested on: CD11c^− microglia
Assay: Apoptotic neuron (AN) uptake and CD11c^- to CD11c^+ differentiation of microglia with αVβ3 / TAM receptor inhibitors
Type: cell-based, mouse
Details: P5 B6-WT CD11c^− microglia, 72 h with pHrodo-labeled ANs 1:1; cilengitide 10 μM, LDC1267 1 μM
From the text: (A) Brain single cell suspensions of 9-mo old WT mice were generated for validation of microglial CD11c expression by flow cytometry. We first gate on CD11b^+ cells from single/live cells followed by subsequent gating of CD11b^+CD45^low populations as potential microglia. […] In contrast, CCR2 but not Tmem 119 expression is detected in the CD11b^+CD45^high fraction, i.e., putative macrophage populations. Analysis of the CD11b^+CD45^low microglial population using FMO negative controls for these FACS plots confirms specificity. […] (B) The proportion of CD11c^+ microglia in C57BL/6 (B6) mice during early development and normal aging (n=3) was determined by flow cytometry analysis. CD11c^+ microglia were initially present at late embryonic day (E18.5), peaked at early postanal day (P5) and gradually declined to marginal levels in young adulthood (3-mon) followed by re-emergence and further expansion during aging. (C) CD11c^− microglia were isolated from P5 B6-WT mice by negative section with anti-CD11c magnetic beads (purity >99%) followed by co-incubation×72 h in the presence or absence of pHrodo fluorescent dye-labeled apoptotic neurons (ANs) at a 1:1 ratio. After 72 h incubation, 23% of total CD11c^− microglia had ingested ANs (AN^+), of which 77.4% of these AN^+ microglia were CD11c^+. […] Expression of CD11c was assessed in CD86^+ or MHC II^+ activated microglia. […]

reduction of AN uptake by CD11c^− microglia: about 50%
Compound: CC(C)[C@H]1C(=O)N[C@@H](CCCN=C(N)N)C(=O)NCC(=O)N[C@@H](CC(=O)O)C(=O)N[C@H](Cc2ccccc2)C(=O)N1C [Cilengitide]
